Data on one molecule can be found in patent US9734283B2, “Genomic features associated with epigenetic control regions and transgenerational inheritance of epimutations” (priority 2011, dated 2017).

The assay deals with sperm promoter epigenome (DNA methylation). The assay can be described thus: MeDIP-Chip (Nimblegen promoter tiling array, competitive hybridization) of F3 sperm DNA with qPCR validation. In kind it is in vivo, mouse. As to conditions: F3 generation sperm. As for the experimental part:
Sperm heads were separated from tails and purified following the protocol described^53 (without protease inhibitors) from a total of six F3 vinclozolin generation mice and six F3 control generation mice in the range of 13-15 months of age. Sperm heads were then further purified using a 70% sucrose gradient centrifugation, based on the method described.^54 Purified sperm heads were resuspended in 1 ml buffer 0.5M tris-HCl, pH 8, 0.5M EDTA, 10% SDS and treated with 100 μl proteinase K (20 mg/mL) and 100 μl DDT (0.1 M) at 55° C. for 1 hour. DNA was precipitated with 50% isopropanol, washed with 70% ethanol and resuspended in DEPC H20. Individual sperm DNA was used as samples for further methylated DNA immunoprecipitation.^15 Two pools of samples were produced for each experimental treatment (control and vinclozolin), therefore each pool contained DNA from three animals from different litters. The MeDIP was performed as follows: 6 μg of genomic DNA was subjected to series of three 20 pulse sonications at 20% amplitude and the appropriate fragment size (200-1000 bp) was verified through 2% agarose gels; the sonicated genomic DNA was resuspended in 350 μl TE and denaturated for 10 min at 95° C. and then immediately placed on ice for 5 min; 100 μl of 5×IP buffer (50 mM Na-phosphate pH7, 700 mM NaCl, 0.25% Triton X-100) was added to the sonicated and denatured DNA.
An overnight incubation of the DNA was performed with 5 μg of antibody anti-5-methylcytidine monoclonal from Diagenode S.A at 4° C. on a rotating platform. Protein A/G beads from Santa Cruz were prewashed on PBS-BSA 0.1% and resuspended in 40 μl 1× IP buffer. Beads were then added to the DNA-antibody complex and incubated 2 h at 4° C. on a rotating platform. Beads bound to DNA-antibody complex were washed 3 times with 1 ml 1×IP buffer; washes included incubation for 5 min at 4° C. on a rotating platform and then centrifugation at 6000 rpm for 2 min. Beads-DNA-antibody complex were then resuspended in 250 μl digestion buffer (50 mM Tris HCl pH 8, 10 mM EDTA, 0.5% SDS) and 3.5 μl of proteinase K (20 mg/ml) was added to each sample and then incubated overnight at 55° C. on a rotating platform. DNA purification was performed first with phenol and then with chloroform: isoamyl alcohol. Two washes were then performed with 70% ethanol, 1 M NaCl and glycogen. MeDIP-selected DNA was then resuspended in 30 μl TE buffer. MeDIP sperm DNA was pooled into each of the four above mentioned groups, adding equal amounts of sperm DNA from each individual sample to the pools. Therefore, a total of four pools of MeDIP sperm DNA (C1, C2, V1 and V2) were used for the ChIP arrays.
Nimblegen Mouse Promoter 3×720K format microarray (Mouse Ref Seq promoter array) was used, each subarray contains 709,520 probes. […]

As for `C=CC1(C)OC(=O)N(c2cc(Cl)cc(Cl)c2)C1=O` (racemic) [vinclozolin, (RS)-3-(3,5-dichlorophenyl)-5-methyl-5-vinyl-1,3-oxazolidine-2,4-dione], where the note is “CD-1”, the “number of confirmed sites with decreased DNA methylation” value stood at 12 and the “number of confirmed sites with increased DNA methylation” value was found to be 28. Besides, the “number of promoters with differential DNA methylation regions (DMR), MeDIP-Chip” value (CD-1, vinclozolin 100 mg/kg/day lineage vs control) worked out at 66. For the setting “CD-1, vinclozolin lineage vs control”, the “number of DMR confirmed with qPCR” value is reported as 40.
